According to patent US5563268A, “Heterobiaryl derivatives” (Dr. Karl Thomae GmbH, priority 1991, dated 1996):
pEC50, pIC50: −log10 of the molar value. Counter-ions that a name gives are not always drawn.

Key:
thrombocyte aggregation = test: Antithrombotic activity: inhibition of collagen-induced platelet aggregation (Born and Cross) in platelet-rich plasma; assay type: cell-based, healthy volunteers (human); details: 10 min, human platelet-rich plasma, 10 minutes incubation at 37° C.
Method: Method The thrombocyte aggregation is measured using the Born and Cross method (J. Physiol. 170: 397 (1964)) in platelet-rich plasma taken from healthy volunteers. To inhibit coagulation the blood is mixed with 3.14% sodium citrate in a ratio by volume of 1:10. Collagen-induced aggregation The pattern of the decrease in optical density of the platelet suspension is photometrically measured and recorded after the addition of the aggregation-triggering substance. The rate of aggregation is concluded from the angle of inclination of the density curve. The point on the curve where there is maximum light transmittance is used to calculate the optical density. The amount of collagen used is as small as possible but sufficient to produce an irreversible reaction curve. Standard commercial collagen produced by Hormonchemie of Munich is used. Before the addition of the collagen the plasma is incubated for 10 minutes with the substance at 37° C. From the measurements obtained an EC50 is determined graphically, indicating a 50% change in the optical density in terms of the inhibition of aggregation.

human thrombocytes [1] = test: Fibrinogen binding to human thrombocytes (125I-fibrinogen, gel-filtered platelets); details: inhibition of 125I-fibrinogen binding by 50%, 20 minutes at ambient temperature, read-out: Fibrinogen binding test ID50
Method: (§1) 1. Fibrinogen binding to human thrombocytes Blood obtained by puncture of an antecubital vein is anticoagulated with trisodium citrate (final concentration: 13 mM) and centrifuged for 10 minutes at 170 *g. The supernatant platelet-rich plasma is placed on a Sepharose 2B column (Pharmacia) and eluted with a solution of 90 mM common salt, 14 mM trisodium citrate, 5 mM glucose and 50 mM tris(hydroxymethyl)aminomethane, adjusted to pH 7.4. The gel-filtered platelets (GFP) appearing in front of the plasma proteins are used for the binding tests. 50 μl of a 60 mM calcium chloride solution, 50 μl of a 0.6 mM adenosine diphosphate solution, 100 μl of substance solution or solvent and 50 μl of fibrinogen solution (containing 3 μg ^125 I-fibrinogen) are added to 750 μl of GFP and incubated for 20 minutes at ambient temperature. The non-specific binding is measured in the presence of 3 mg/ml of cold fibrinogen. 900 μl of the incubate are carefully pipetted onto 250 μl of silicon oil (AP 38: AR 20, 1:2 v/v, Wacker Chemie) in Eppendorf vessels and centrifuged for 2 minutes at 10,000 *g. The aqueous supernatant and some of the oil are removed, the tip of the vessel with the platelet pellet is cut off and the quantity of bound fibrinogen is measured in a gamma-counter. The concentration of substance which inhibits fibrinogen binding by 50% is calculated from a series of concentrations and given as the IC50.

mice = test: Tolerability after intravenous administration to mice; assay type: in vivo; details: intravenous administration of 30 mg/kg to three mice
human thrombocytes [2] = test: Fibrinogen binding test on human thrombocytes with 125I-fibrinogen replaced by a 3H-labelled ligand (footnote *); details: * 125I fibrinogen replaced by 3H-labelled (3S,5S)-5-[(4amidino-4-biphenylyl)-oxymethyl... pyrrolidon ligand; 20 min; read-out: Fibrinogen binding test ID50
Method: as §1, with “The gel-filtered platelets (GFP) appearing in front of the plasma proteins are used for the binding tests. 50 μl of a 60 mM calcium chloride solution, 50 μl of a 0.6 mM adenosine diphosphate solution, 100 μl of substance solution or solvent and 50 μl of fibrinogen solution (containing 3 μg ^125 I-fibrinogen) are added to 750 μl of GFP and incubated for 20 minutes at ambient temperature.” left out, “IC50. | *^125 I fibrinogen was replaced by [^3 […]” for “IC50.”

human thrombocytes [3] = test: Antiaggregatory activity ex vivo after oral administration to rats, rat plasma in the presence of human thrombocytes; design: species or system rat (treated animals; details: 10 mg/kg oral, two hours after administration, rat plasma with human thrombocytes

SMILES	pEC50 (thrombocyte aggregation)	pIC50 (human thrombocytes [1])	pIC50 (human thrombocytes [2])	deaths (mice)	antiaggregatory activity (human thrombocytes [3])
Cn1nc(-c2ccc(C(=N)N)cc2)cc(C(=O)N(C)[C@H]2CC[C@H](C(=O)O)CC2)c1=O [1(16), 6-(4-amidinophenyl)-4-[N-(trans-4-carboxycyclohexyl)-N-methyl-aminocarbonyl]-2-methyl-(2H)-pyridazin-3-one]	6.80	7.26		did not cause any deaths	
Cl.Cn1nc(-c2ccc(CN)cc2)cc(C(=O)N[C@H]2CC[C@H](C(=O)O)CC2)c1=O [Example 4, 6-[4-(Aminomethyl)-phenyl]-4-[(trans-4-carboxy-cyclohexyl)-aminocarbonyl]-2-methyl-(2H)-pyridazin-3-one-hydrochloride]	6.10	6.43		did not cause any deaths	
COc1nc(-c2ccc(C(=N)N)cc2)ncc1C(=O)N1CCC(CC(=O)O)CC1 [1(14), 2-(4-amidinophenyl)-5-[4-(carboxymethyl)-piperidinocarbonyl]-4-methoxy-pyrimidine]	7.00	7.48			
Cn1nc(-c2ccc(C(=N)N)cc2)cc(C(=O)NCCCCC(=O)O)c1=O [Example 1, 6-(4-Amidinophenyl)-4-[(4-carboxybutyl)-aminocarbonyl]-2-methyl-(2H)-pyridazin-3-one]	6.38	6.89		did not cause any deaths	
COC(=O)NC(=N)c1ccc(-c2cc(C(=O)N[C@H]3CC[C@H](C(=O)OC)CC3)c(=O)n(C)n2)cc1 [Example 3, 6-[4-[N-(Methoxycarbonyl)-amidino]-phenyl]-4-[[trans-4-(methoxycarbonyl)-cyclohexyl]-aminocarbonyl]-2-methyl-(2H)-pyridazin-3-one]	< 3.52	5.66		did not cause any deaths	showed an antiaggregatory activity
COC(=O)CC1CCN(C(=O)c2cnc(-c3ccc(C(=N)N)cc3)nc2OC)CC1 [2(15), 2-(4-amidinophenyl)-4-methoxy-5-[4-[(methoxycarbonyl)-methyl]-piperidinocarbonyl]-pyrimidine-hydrochloride]	5.28	4.28			
N=C(N)c1ccc(-c2cc(C(=O)N[C@H]3CC[C@H](C(=O)O)CC3)cnn2)cc1 [1(20), 3-(4-amidinophenyl)-5-[(trans-4-carboxycyclohexyl)-aminocarbonyl]-pyridazine]	6.54	7.24		did not cause any deaths	
N=C(N)c1ccc(-c2cc(C(=O)NCCCCC(=O)O)c(=O)[nH]n2)cc1 [1(3), 6-(4-amidinophenyl)-4-[(4-carboxybutyl)-aminocarbonyl]-2H-pyridazin-3-one]	6.41	6.70			
COC(=O)CCCCNC(=O)c1cc(-c2ccc(C(=N)N)cc2)nn(C)c1=O [2(1), 6-(4-amidinophenyl)-4-[[4-(methoxycarbonyl)-butyl]-aminocarbonyl]-2-methyl-(2H)-pyridazin-3-one]	5.72	5.49			
Cn1nc(-c2ccc(C(=N)N)cc2)cc(C(=O)N[C@H]2CC[C@H](C(=O)O)CC2)c1=O [1(4), 6-(4-amidinophenyl)-4-[(trans-4-carboxycyclohexyl)-aminocarbonyl]-2-methyl-(2H)-pyridazin-3-one]	6.27	7.43		did not cause any deaths	

More lines, main results first:

pEC50 (thrombocyte aggregation)	pIC50 (human thrombocytes [1])	pIC50 (human thrombocytes [2])	SMILES	deaths (mice)	antiaggregatory activity (human thrombocytes [3])
6.44	5.72		COC(=O)[C@H]1CC[C@H](NC(=O)c2cc(-c3ccc(C(=N)N)cc3)nn(C)c2=O)CC1 [Example 2, 6-(4-Amidinophenyl)-4-[[trans-4-(methoxycarbonyl)-cyclohexyl]-aminocarbonyl]-2-methyl-(2H)-pyridazin-3-one]		
5.52	5.21		COC(=O)[C@H]1CC[C@H](NC(=O)c2cc(-c3ccc(CN)cc3)nn(C)c2=O)CC1 [Example 5, 6-[4-(Aminomethyl)-phenyl]-4-[[trans-4-(methoxycarbonyl)-cyclohexyl]-aminocarbonyl]-2-methyl-(2H)-pyridazin-3-one-hydrochloride]		
7.00		7.48	N=C(N)c1ccc(-c2cc(C(=O)N[C@H]3CC[C@H](C(=O)O)CC3)c(=O)n(CC(=O)N3CCOCC3)n2)cc1 [1(30), 6-(4-amidinophenyl)-4-[(trans-4-carboxycyclohexyl)-aminocarbonyl]-2-[(morpholinocarbonyl)-methyl]-(2H)-pyridazin-3-one-hydrochloride]		
5.89	5.64		COC(=O)[C@H]1CC[C@H](N(C)C(=O)c2cc(-c3ccc(C(=N)N)cc3)nn(C)c2=O)CC1 [2(17), 6-(4-amidinophenyl)-4-[N-[trans-4-(methoxycarbonyl)-cyclohexyl]-N-methyl-aminocarbonyl]-2-methyl-(2H)-pyridazin-3-one-hydrochloride]		
6.51		7.48	N=C(N)c1ccc(-c2cc(C(=O)N[C@H]3CC[C@H](C(=O)O)CC3)c(=O)n(Cc3ccccc3)n2)cc1 [1(18), 6-(4-amidinophenyl)-2-benzyl-4-[(trans-4-carboxycyclohexyl)-aminocarbonyl]-(2H)-pyridazin-3-one]		
4.41	5.77		N=C(N)c1ccc(-c2ccc(Oc3ccc(CCC(=O)O)cc3)nn2)cc1 [1(8), 6-(4-amidinophenyl)-3-[4-(2-carboxyethyl)-phenyloxy]-pyridazine]		
6.49	7.21		COc1nnc(-c2ccc(C(=N)N)cc2)cc1C(=O)N[C@H]1CC[C@H](C(=O)O)CC1 [1(21), 6-(4-amidinophenyl)-4-[(trans-4-carboxycyclohexyl)-aminocarbonyl]-3-methoxy-pyridazine]		
4.92	5.36		N=C(N)c1ccc(-c2ccc(Nc3ccc(CCC(=O)O)cc3)nn2)cc1 [1(7), 6-(4-amidinophenyl)-3-[4-(2-carboxyethyl)-phenylamino]-pyridazine]		
5.92	6.24		N=C(N)c1ccc(-c2ccc(N[C@H]3CC[C@H](C(=O)O)CC3)nn2)cc1 [1(11), 6-(4-amidinophenyl)-3-[(trans-4-carboxycyclohexyl)-amino]-pyridazine]		
